Measured values published in patent publication US10590393B2, “Retinoic acid enhanced human stem cell derived blood brain barrier model” (Wisconsin Alumni Research Foundation, priority 2012, dated 2020).
Several values for one entry are separate records, joined by “and”; a condition that tells them apart may be missing. Identical values can stand only once.

Experiments:
Format in all cases: cell-based, human
IMR90-4-derived BMECs [1] = assay: TEER of RA-treated IMR90-4-derived BMECs (monoculture and neural cell co-culture)
Protocol: (§1) IMR90-4 and DF19-9-11T hiPSCs and H9 hESCs were maintained between passages 26-42 on […] (BD Biosciences) in mTeSR1™ medium ([…] Technologies) or on irradiated mouse embryonic fibroblasts (MEFs) in standard unconditioned medium (Dulbecco's Modified Eagle's Medium [DMEM]/Ham's F12 containing 20% Knockout Serum Replacer (Invitrogen), 1×MEM nonessential amino acids (Invitrogen), 1 mM L-glutamine (Sigma), 0.1 mM β-mercaptoethanol (Sigma), and human basic fibroblast growth factor (bFGF; 100 ng/mL for hiPSCs and 4 ng/mL for hESCs; Waisman Clinical Biomanufacturing Facility, University of Wisconsin-Madison)). Prior to differentiation, cells were passaged onto Matrigel (BD Biosciences) in mTeSR1 medium ([…] Technologies). After 2-3 days in mTeSR1, medium was switched to unconditioned medium (UM) lacking bFGF for 6 days. Human endothelial serum-free medium (hESFM; Invitrogen) supplemented with 20 ng/mL bFGF (R&D Systems) and 1% platelet-poor plasma derived bovine serum (Biomedical Technologies, Inc.) was then added for an additional 2-4 days.
(§2) All-trans RA (Sigma) was included at concentrations of 1-10 μM depending on the experiment. Equivalent DMSO was used as a vehicle control in some experiments. Cells were then dissociated with Versene (Invitrogen) and plated onto 12-well tissue culture polystyrene plates or 1.12 cm^2 Transwell-Clear® permeable inserts (0.4 μm pore size) coated with a mixture of collagen IV (400 μg/mL; Sigma) and fibronectin (100 μg/mL; Sigma). Culture plates were incubated with the coating for at least 30 min at 37° C., while the inserts were incubated for a minimum of 4 h at 37° C. hPSC-derived BMECs were then cultured in EC medium overnight (with or without RA). […] Also, our previous study used hPSCs exclusively maintained on MEFs.
(§3) FIG. 5 dictates the timing of co-culture experiments. During the subculture phase, hPSC-derived BMECs were monocultured or co-cultured with pericytes or fibroblasts in EC medium (with or without RA). After the 24 h subculture phase, hPSC-derived BMECs were maintained as a monoculture or co-cultured with differentiated hNPCs, pericytes, or fibroblasts. Depending on the experiment, co-culture was conducted in NPC differentiation medium containing 10% FBS (as opposed to the 1% FBS used during NPC differentiation) or hESFM containing 1% PDS but not bFGF (modified EC medium). Trans-endothelial electrical resistance (TEER) was measured immediately prior to co-culture using an EVOM voltohmmeter (World Precision Instruments, Sarasota, Fla., USA) and approximately every 24 h thereafter as necessary.

H9-derived BMECs = assay: TEER of RA-treated H9-derived BMECs
Protocol: as §1, §2, §3

IMR90-4-derived BMECs [2] = assay: Analysis of tight junction fidelity (frayed tight junctions, occludin immunolabel)
Protocol: Cells were washed twice with phosphate-buffered saline (PBS; Sigma) and fixed with either 100% ice-cold methanol for 10 min or 4% paraformaldehyde for 15 min. Cells were then washed twice with PBS and blocked in PBS containing 40% goat serum (40% PBSG; Sigma) at 20° C. for 30 min. In some instances, 0.1% Triton X-100 (TX-100) was included during this step to permeabilize the cells. Cells were then washed once with PBS and incubated with primary antibodies against occludin (1:100; Invitrogen), claudin-5 (1:100; Invitrogen), VE-cadherin (1:25; Santa Cruz Biotechnology), von Willebrand Factor (vWF; 1:100; Dako), p-glycoprotein (clone F4; 1:25; Lab Vision), breast cancer resistance protein (BCRP, clone 5D3; 1:25; Millipore), multidrug resistance protein 1 (MRP1, clone QCRL-1; 1:100; Millipore), in 40% PBSG at 4° C. overnight. Cells were washed three times with PBS and incubated with secondary antibodies (goat anti-rabbit Texas Red and goat anti-mouse Alexa Fluor 488; 1:500; Invitrogen) for 1 h at 20° C. Cell nuclei were counterstained with 300 nM 4′,6-Diamidino-2-pheny-lindoldihydrochloride (DAPI) for 10 min. […] For quantitative analysis of BMEC integrity, the percentage of cells expressing frayed tight junctions was counted using BMECs immunolabeled for occludin. […] A minimum of four separate frames and 1000 total cells were counted to obtain a percentage of frayed tight junctions.

Q: How did the TEER (IMR90-4-derived BMECs [1]; 24 hours after transfer to EC medium without bFGF or RA, monoculture) turn out when `CC1=C(/C=C/C(C)=C/C=C/C(C)=C/C(=O)O)C(C)(C)CCC1` [RA, retinoic acid] was run?
A: Its TEER is “above 2000 Ω×cm^2”.

Q: What about the TEER (IMR90-4-derived BMECs [1]; 24 hours in modified EC medium, fibroblasts (FIG. 11a)) of the same molecule?
A: Its TEER is 2405±366 Ω×cm^2.

Q: And the TEER (IMR90-4-derived BMECs [1]; 24 hours in modified EC medium, monoculture control (FIG. 11a))?
A: The TEER was 2474±124 Ω×cm^2.

Q: And the TEER (IMR90-4-derived BMECs [1]; 24 hours, sequential pericyte/hNPC co-culture in modified EC medium (FIG. 11a))?
A: Its TEER is 5160±318 Ω×cm^2.

Q: What about the TEER (IMR90-4-derived BMECs [1]; pericyte/hNPC co-culture, each of 7 co-cultures, hNPCs differentiated 10-19 days, 10% FBS (FIG. 10c)) of the same molecule?
A: Its TEER is “exceeded 2500 Ω×cm^2”.

Q: What about the “TEER under optimal conditions” value (IMR90-4-derived BMECs [1]; pericytes/hNPCs in modified EC medium, five out of six separate co-culture experiments) of the same molecule?
A: The value was > 5000 Ω×cm^2.

Q: And the “Maximum TEER” value (IMR90-4-derived BMECs [1]; subculture: monoculture, co-culture phase: differentiated NPCs (10 days), 10% FBS)?
A: The value was 2938 ± 229 (3) Ω × cm^2.

Q: What about the “Maximum TEER” value (IMR90-4-derived BMECs [1]; subculture: pericytes, co-culture phase: differentiated NPCs (10 days), 10% FBS) of the same molecule?
A: Its value is 3606 ± 366 (7) Ω × cm^2.

Q: And the “Maximum TEER” value (IMR90-4-derived BMECs [1]; subculture: pericytes, co-culture phase: differentiated NPCs (17 days), 1% PDS)?
A: The value was 5352±252 Ω × cm^2 and 5352 ± 252 (6) Ω × cm^2.

Q: What about the “Maximum TEER” value (IMR90-4-derived BMECs [1]; subculture: pericytes, co-culture phase: pericytes, 1% PDS (modified EC medium), 24 h) of the same molecule?
A: Its value is 4454±174 Ω × cm^2 and 4454 ± 175 ^ Ω × cm^2.

Q: And the “Maximum TEER” value (IMR90-4-derived BMECs [1]; subculture: pericytes, co-culture phase: pericytes, 10% FBS)?
A: The value was 2892 ± 271 ^ Ω × cm^2.

Q: And the “Average TEER” value (IMR90-4-derived BMECs [1]; t = 0 h, monoculture, mean ± S.D. between biological replicates)?
A: The value was 956 ± 345 Ω × cm^2.

Q: What about the “Maximum TEER” value (IMR90-4-derived BMECs [1]; t = 0 h, monoculture, mean ± S.D. between triplicate filters) of the same molecule?
A: Its value is 1502 ± 145 Ω × cm^2.

Q: And the “Average TEER” value (IMR90-4-derived BMECs [1]; t = 24 h, monoculture, modified EC medium without bFGF or RA, between biological replicates)?
A: The value was 2935±802 Ω × cm^2 and at least 2935±802 Ω × cm^2.

Q: What about the “Maximum TEER” value (IMR90-4-derived BMECs [1]; t = 24 h, monoculture, triplicate filters) of the same molecule?
A: Its value is 3674 ± 367 Ω × cm^2.

Q: What about the “baseline TEER” value (IMR90-4-derived BMECs [1]; t=0 h, 24 hours after purification at confluence, range over experiments) of the same molecule?
A: Its value is 300-1500 Ω×cm^2.

Q: And the TEER (IMR90-4-derived BMECs [1]; t=0, human foreskin fibroblasts in place of pericytes (FIG. 11a))?
A: Its TEER is 2106±30 Ω×cm^2.

Q: What about the TEER (IMR90-4-derived BMECs [1]; t=0, monoculture control of FIG. 11a) of the same molecule?
A: The TEER was 1575±163 Ω×cm^2.

Q: What about the TEER (IMR90-4-derived BMECs [1]; t=0, pericyte co-culture during the subculture phase, standard EC medium (FIG. 11a)) of the same molecule?
A: The TEER was 3573±175 Ω×cm^2.

Q: And the TEER (H9-derived BMECs; optimized RA schedule (6D UM, 1D EC, 3D EC+RA), after purification (FIG. 9c))?
A: Its TEER is 1039±142 Ω×cm^2.

Q: What about the “Maximum TEER” value (H9-derived BMECs; subculture: pericytes, co-culture phase: differentiated NPCs (9 days), 1% PDS) of the same molecule?
A: The value was 1675±95 Ω × cm^2 and 1675 ± 95 (2) Ω × cm^2.

Q: And the “Average TEER” value (H9-derived BMECs; t = 24 h, optimized RA schedule, between biological replicates)?
A: Its value is 646±308 Ω × cm^2.

Q: What about the “Maximum TEER” value (H9-derived BMECs; t = 24 h, triplicate filters) of the same molecule?
A: The value was 1028 ± 153 Ω × cm^2.

Q: And the “cells with frayed tight junctions” value (IMR90-4-derived BMECs [2]; BMECs only treated with RA)?
A: The value was 1.5±0.9%.

Q: What about the “cells with frayed tight junctions” value (IMR90-4-derived BMECs [2]; RA-treated BMECs with sequential pericyte/hNPC co-culture in modified EC medium) of the same molecule?
A: Its value is 1.4±0.6%.
